ChEMBL document CHEMBL1201862, “PubChem BioAssay data set” (2004)
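Method: 48-hour compound exposure of cells in 96-well plates, five concentrations, linear interpolation of endpoints. The concentration for 50% growth inhibition is given as GI50.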 Calls of active or inactive are those of the source. Cut-off read from the data, not from the text of the source: active = GI50 up to about 1.1 µM and inactive = higher.

Tests used:
Assay in all cases: NCI tumour cell line growth inhibition, 48 h
786-0 = tested on: 786-0
A498 = tested on: A498
ACHN = tested on: ACHN
CAKI-1 = tested on: CAKI-1
DU-145 = tested on: DU-145
HCC 2998 = tested on: HCC 2998
HCT-116 = tested on: HCT-116
Hs-578T = tested on: Hs-578T
K562 = tested on: K562
LOX IMVI = tested on: LOX IMVI
MDA-N = tested on: MDA-N
NCI/ADR-RES = tested on: NCI/ADR-RES
OVCAR-4 = tested on: OVCAR-4
PC-3 = tested on: PC-3
RPMI-8226 = tested on: RPMI-8226
SK-MEL-28 = tested on: SK-MEL-28
SK-MEL-5 = tested on: SK-MEL-5
SNB-19 = tested on: SNB-19
SW-620 = tested on: SW-620
UACC-257 = tested on: UACC-257

Measured: GI50

CC(NNC(=O)c1ccncc1)c1ccc(Cl)c(Cl)c1 (stereo not given)
inactive: 786-0 > 100 µM | A498 69.3 µM | ACHN > 100 µM | CAKI-1 > 100 µM | DU-145 > 100 µM | HCC 2998 > 100 µM | HCT-116 > 100 µM | Hs-578T 86.9 µM | K562 38.4 µM | LOX IMVI > 100 µM | MDA-N 95.3 µM | NCI/ADR-RES > 100 µM | OVCAR-4 > 100 µM | PC-3 71.3 µM | RPMI-8226 75.5 µM | SK-MEL-28 > 100 µM | SK-MEL-5 > 100 µM | SNB-19 > 100 µM | SW-620 > 100 µM | UACC-257 > 100 µM

COC1CC(O[C@H]2CC[C@@]3(C)[C@@H](CC[C@]4(O)[C@@H]3CC[C@]3(C)[C@@H](C(C)=O)[C@H](OC(=O)CC(C)C)[C@@H](OC(=O)c5ccccc5)[C@@]34O)C2)OC(C)C1OC1CC(OC)C(OC2OC(C)C(O)C(OC)C2O)C(C)O1 (stereo not given in full)
inactive: 786-0 > 25 µM | A498 > 25 µM | ACHN 24.4 µM | CAKI-1 17.7 µM | DU-145 > 25 µM | HCC 2998 9.2 µM | HCT-116 10.4 µM | Hs-578T 8.09 µM | K562 11 µM | LOX IMVI 15.9 µM | MDA-N > 25 µM | NCI/ADR-RES 19.9 µM | OVCAR-4 19.1 µM | PC-3 11.7 µM | RPMI-8226 6.12 µM | SK-MEL-28 > 25 µM | SK-MEL-5 17.8 µM | SNB-19 > 25 µM | SW-620 > 25 µM | UACC-257 > 25 µM
